# In paper PMC3858267, “The Enhanced In Vivo Activity of the Combination of a MEK and a PI3K Inhibitor Correlates with [^18F]-FLT PET in Human Colorectal Cancer Xenograft Tumour-Bearing Mice” (PLoS ONE, 2013):
# Read-outs that look alike come from different tables or passages of the source. Marks after values point to notes of the source that are not given here.
# Legend:
# [1] = Single dose PK: plasma and tumour tissue drug concentrations by HPLC in HCT116 xenograft-bearing mice; assay type: in vivo; settings: for AUC: po; for AUC / GDC-0941 AUC Tumour / PD 0325901 AUC Tumour: over 24 hours, mean ± SD
# Protocol: (§1) Blood was collected into heparinised tubes, and plasma was separated and stored at −20°C until analysed. Tumours were removed, snap frozen in liquid nitrogen and stored at −80°C prior to PK and PD analyses, as described below.
# For PK analyses, drug was extracted from 60 µl aliquots of samples by protein precipitation with 9 volumes of acetonitrile (MeCN). Samples were centrifuged at 3000g for 5 minutes at 4°C, and 500 µl of the supernatant evaporated to dryness under nitrogen gas at 30°C using a Zymark Evaporator (Caliper Life Sciences Limited, Cheshire, UK). Samples were reconstituted in 100 µl HPLC mobile phase consisting of 40% acetonitrile and 60% (v/v) 0.1% formic acid pH 4.0 (v/v), and 50 µl of the supernatant applied to a 10 cm Xterra Waters 186000436 C18 3.5 µm column (Waters, Hertfordshire, UK) fitted with an in line filter. Compounds were eluted with the above mobile phase at 1 ml/min using a Waters Millennium Chromatography system (Waters, Hertfordshire, UK). Analytes were detected by UV absorbance at 275 and 315 nm, at retention times of 6.8–7.3 and 3.9–4.3 minutes for PD 0325901 and GDC-0941, respectively. For analysis of drug in tumour tissue, tumours were homogenised in 3 volumes of PBS (w/v) and 50 µl aliquots extracted with 9 volumes of MeCN, and centrifuged, evaporated and analysed as described above.
# [2] = system: HT29 human tumour xenografts; assay: Anti-tumour activity (time to RTV3/RTV4) in HT29 human tumour xenografts; assay type: in vivo, mice; settings: 1 mg/kg PD 0325901, 100 mg/kg GDC-0941, alone or in combination, p.o. once daily for 14 days
# Protocol: Animal studies were all carried out using female athymic CD1 nude mice (Charles River, Kent, UK), implanted with HCT116 or HT29 xenografts (1×10^7 cells in 50 µl media injected subcutaneously into the right flank), maintained and handled in isolators under specific pathogen-free conditions.
# [3] = system: HCT116 human tumour xenografts; assay: [18F]-FLT PET tumour uptake in HCT116 xenografts; assay type: in vivo, mice; settings: 1 mg/kg PD 0325901, 100 mg/kg GDC-0941, alone or in combination, p.o. once daily for 2 days
# Protocol: Before treatment and after 2 days of treatment as described above, mice bearing HCT116 human tumour xenografts (7–9 mice/group) were anaesthetised, cannulated via their tail vein and placed in the prone position on a custom-made heated bed, which held three mice at once, within a MOSAIC PET scanner (Philips, Eindhoven, NL). [^18F]-FLT was obtained from PETNET (PETNET, Nottingham, UK), and radioactivity levels were measured using a Capintec well counter (Capintec, NJ, USA). Approximately 10 MBq of [^18F]-FLT was administered intravenously and a 1 hour dynamic PET scan was performed, consisting of ten 1 minute, six 5 minute and two 10 minute time frames. Mice were recovered after scanning and continued to receive treatment for the remainder of the study. Data were analysed using Imalytics software (Philips, Aachen, Germany); a 3D region of interest was drawn around the tumour and the standardised uptake value (SUV) was calculated by dividing the tissue concentration (MBq/ml) by the injected dose (MBq)/g body weight. Mean SUV values were then plotted against time, and the area under the curve (AUC) and the percentage change in the area under the curve relative to the baseline scan was calculated.
# [4] = system: phospho-p44/42 MAPK (Thr202/Tyr204) (ERK1/2); assay: PD Western blot of HCT116 tumour lysates: ERK1/2 phosphorylation; assay type: in vivo, mice
# Protocol: as §1
# For PD analyses, tumours (2 to 4∼2.5 mm^3 pieces) were disaggregated in 1 ml PhosphoSafe™ extraction reagent (Merck Chemicals Ltd, Nottingham, Nottinghamshire, UK) containing a protease inhibitor cocktail (Pierce, Thermo Scientific, Rockford, Illinois, USA) at the manufacturer's recommended dilution using a Medimachine™ (BD Biosciences, Oxford, UK), centrifuged, and the supernatant removed and analysed by Western blotting. Proteins were resolved on Novex® 4–12% (w/w) Tris-glycine gels (Invitrogen Ltd, Renfrew, Paisley, UK) and electrotransferred onto Hybond C nitrocellulose membrane (GE Healthcare Life Sciences, Hatfield, Hertfordshire, UK). Membranes were incubated with phospho-4EBP1 (Thr37/46) (#2855), phospho-p44/42 MAPK (Thr202/Tyr204) (#4370), phospho-Akt (Ser473) (#4060) or phospho-S6 ribosomal protein (Ser235/236) (#4858) monoclonal antibodies obtained from Cell Signalling Technology (New England BioLabs (UK) Ltd, Hitchin, Hertfordshire, UK). Antibody binding was detected by incubation with a HRP-conjugated goat anti-rabbit polyclonal antibody (Dako, Glastrop, Denmark). Blots were developed using Pierce ECL (enhanced chemiluminescence) western blotting substrate (Thermo Scientific, Rockford, Illinois, USA), or SuperSignal® West Dura extended duration substrate (Thermo Scientific, Rockford, Illinois, USA), and Kodak X-ray film (Genetic Research Instrumentation Ltd, Braintree, Essex, UK) on a MediPhot 937 film developer (Colenta, Weiner Neustadt, Austria), then digitally scanned.
# phospho-Akt (Ser473) = assay: PD Western blot of HCT116 tumour lysates: AKT phosphorylation; assay type: in vivo, mice; settings: 0.25–24 hours after single p.o. dose; 1 mg/kg PD 0325901, 100 mg/kg GDC-0941 or combination (combination compared to single agent PI3K inhibitor)
# Protocol: as §1
# For PD analyses, tumours (2 to 4∼2.5 mm^3 pieces) were disaggregated in 1 ml PhosphoSafe™ extraction reagent (Merck Chemicals Ltd, Nottingham, Nottinghamshire, UK) containing a protease inhibitor cocktail (Pierce, Thermo Scientific, Rockford, Illinois, USA) at the manufacturer's recommended dilution using a Medimachine™ (BD Biosciences, Oxford, UK), centrifuged, and the supernatant removed and analysed by Western blotting. […] Antibody binding was detected by incubation with a HRP-conjugated goat anti-rabbit polyclonal antibody (Dako, Glastrop, Denmark).
# [5] = system: phospho-S6 ribosomal protein (Ser235/236); assay: PD Western blot of HCT116 tumour lysates: S6 phosphorylation; assay type: in vivo, mice; settings: 0.25–24 hours after single p.o. dose; 1 mg/kg PD 0325901, 100 mg/kg GDC-0941 or combination (combination compared to single agent PI3K inhibitor)
# phospho-4EBP1 (Thr37/46) = assay: PD Western blot of HCT116 tumour lysates: 4EBP1 phosphorylation; assay type: in vivo, mice; settings: 0.25–24 hours after single p.o. dose; 1 mg/kg PD 0325901, 100 mg/kg GDC-0941 or combination (combination compared to single agent PI3K inhibitor)
# HCT116 cells = system: HCT116 cells; set-up: method as in PMID 22415236; settings: previously determined; read-out: in vitro GI50; cited from earlier work
# [6] = single p.o. dose 10 mg/kg PD 0325901+10 mg/kg GDC-0941
structure (smiles),measurement,setting,value
"CS(=O)(=O)N1CCN(Cc2cc3nc(-c4cccc5[nH]ncc45)nc(N4CCOCC4)c3s2)CC1 [GDC-0941, 2-(1H-Indazol-4-yl)-6-(4-methanesulfonyl-piperazin-1-ylmethyl)-4-morpholin-4-yl-thieno[3,2-d]pyrimidine]",increase in plasma AUC with 10-fold increment in dose,[1]; GDC-0941 100 versus 10 mg/kg,7 fold
same,increase in tumour AUC following a 10-fold increase in dose,[1]; GDC-0941 100 versus 10 mg/kg,15 fold
same,AUC,"[1]; mouse, plasma, 10 mg/kg, single p.o. dose 10 mg/kg GDC-0941 alone, read-out: GDC-0941 AUC Plasma (converted)",5.4 µM·h
same,AUC,"[1]; mouse, plasma, 10 mg/kg, single p.o. dose 10 mg/kg PD 0325901+10 mg/kg GDC-0941, read-out: GDC-0941 AUC Plasma (converted)",6.33 µM·h
same,AUC,"[1]; mouse, plasma, 100 mg/kg, single p.o. dose 100 mg/kg GDC-0941 alone, read-out: GDC-0941 AUC Plasma (converted)",39.4 µM·h
same,AUC,"[1]; mouse, plasma, single p.o. dose 1 mg/kg PD 0325901+10 mg/kg GDC-0941, read-out: GDC-0941 AUC Plasma (converted)",6.55 µM·h
same,AUC,"[1]; mouse, plasma, single p.o. dose 1 mg/kg PD 0325901+100 mg/kg GDC-0941, read-out: GDC-0941 AUC Plasma (converted)",22.6 µM·h
same,AUC,"[1]; mouse, plasma, single p.o. dose 10 mg/kg PD 0325901+100 mg/kg GDC-0941, read-out: GDC-0941 AUC Plasma (converted)",58.8 µM·h
same,GDC-0941 AUC Tumour,[1]; single p.o. dose 1 mg/kg PD 0325901+10 mg/kg GDC-0941,396±144^j µM.min
same,GDC-0941 AUC Tumour,[1]; single p.o. dose 1 mg/kg PD 0325901+100 mg/kg GDC-0941,3196±183^h µM.min
same,GDC-0941 AUC Tumour,[1]; single p.o. dose 10 mg/kg GDC-0941 alone,364±130^g µM.min
same,GDC-0941 AUC Tumour,[1]; [6],"124±51^g,j µM.min"
same,GDC-0941 AUC Tumour,[1]; single p.o. dose 10 mg/kg PD 0325901+100 mg/kg GDC-0941,2649±861^i µM.min
same,GDC-0941 AUC Tumour,[1]; single p.o. dose 100 mg/kg GDC-0941 alone,"5422±962^h,i µM.min"
same,"Time to RTV3, Mean ± SD",[2],11 ± 9 days
same,"Time to RTV3, Median ± IR",[2],10 ± 6 days
same,"Time to RTV4, Mean ± SD",[2],13 ± 9 days
same,"Time to RTV4, Median ± IR",[2],10 ± 5 days
same,decrease in tumour [18F]-FLT uptake (SUV AUC) after 2 days versus baseline,[3],no significant difference
same,phosphorylation of ERK1/2 in tumour,"[4]; 0.25–24 hours after single p.o. dose, 100 mg/kg GDC-0941 alone or with 1 mg/kg PD 0325901 (combination compared to single agent MEK inhibitor)",reduction
same,phosphorylation of AKT in tumour,phospho-Akt (Ser473),reduction
same,phosphorylation of S6 in tumour,[5],reduction
same,phosphorylation of 4EBP1 in tumour,phospho-4EBP1 (Thr37/46),reduction
same,GI50,HCT116 cells,1080 nM
O=C(NOC[C@H](O)CO)c1ccc(F)c(F)c1Nc1ccc(I)cc1F [PD 0325901],increase in plasma AUC of PD 0325901 following concomitant dosing with GDC-0941,[1]; 1 or 10 mg/kg PD 0325901 alone versus with GDC-0941,2–3 fold
same,increase in plasma AUC with 10-fold increment in dose,[1]; PD 0325901 10 versus 1 mg/kg,15 fold
same,"tumour tissue level (undetectable, limit of detection)","[1]; all time points after 1 mg/kg PD 0325901, per g of tumour material",< 0.4 nmol/g
same,concentration at 24 h,"[1]; mouse, plasma, oral, at 24 hours after 1 mg/kg PD 0325901, read-out: plasma level (undetectable, limit of detection)",< 100 nM
same,AUC,"[1]; mouse, plasma, 1 mg/kg, single p.o. dose 1 mg/kg PD 0325901 alone, read-out: PD 0325901 AUC Plasma (converted)",1.38 µM·h
same,AUC,"[1]; mouse, plasma, 10 mg/kg, single p.o. dose 10 mg/kg PD 0325901+10 mg/kg GDC-0941, read-out: PD 0325901 AUC Plasma (converted)",40 µM·h
same,AUC,"[1]; mouse, plasma, 10 mg/kg, single p.o. dose 10 mg/kg PD 0325901 alone, read-out: PD 0325901 AUC Plasma (converted)",21.6 µM·h
same,AUC,"[1]; mouse, plasma, single p.o. dose 1 mg/kg PD 0325901+10 mg/kg GDC-0941, read-out: PD 0325901 AUC Plasma (converted)",2.73 µM·h
same,AUC,"[1]; mouse, plasma, single p.o. dose 1 mg/kg PD 0325901+100 mg/kg GDC-0941, read-out: PD 0325901 AUC Plasma (converted)",3.15 µM·h
same,AUC,"[1]; mouse, plasma, single p.o. dose 10 mg/kg PD 0325901+100 mg/kg GDC-0941, read-out: PD 0325901 AUC Plasma (converted)",54.1 µM·h
same,PD 0325901 AUC Tumour,[1]; [6],"399±72^d,f µM.min"
same,PD 0325901 AUC Tumour,[1]; single p.o. dose 10 mg/kg PD 0325901 alone,"1082±232^d,e µM.min"
same,"Time to RTV3, Mean ± SD",[2],10 ± 4 days
same,"Time to RTV3, Median ± IR",[2],10 ± 4 days
same,"Time to RTV4, Mean ± SD",[2],11 ± 4 days
same,"Time to RTV4, Median ± IR",[2],11 ± 3 days
same,decrease in tumour [18F]-FLT uptake (SUV AUC) after 2 days versus baseline,[3],no significant difference
same,phosphorylation of ERK1/2 in tumour,[4]; 3 and 6 hours after single p.o. dose of 1 mg/kg PD 0325901,completely ablate
same,phosphorylation of ERK1/2 in tumour,[4]; 1 hour after single p.o. dose of 1 mg/kg PD 0325901,reduce
same,phosphorylation of AKT in tumour,phospho-Akt (Ser473),no marked effect
same,phosphorylation of S6 in tumour,[5],no marked effect
same,phosphorylation of 4EBP1 in tumour,phospho-4EBP1 (Thr37/46),no marked effect
same,GI50,HCT116 cells,21 nM
